Source: ChEMBL document CHEMBL4190339, “Design, synthesis and preliminary biological evaluation of new [1,2,3]triazolo[4,5-d]pyrimidine/thiourea hybrids as antiproliferative agents” (Eur J Med Chem, 2017)
The source made the active and inactive calls. No cut-off for these calls is given here.

Tests used:
[1] = tested on: MGC-803; assay: Antiproliferative activity against human MGC803 cells after 48 hrs by MTT assay; format: functional, cell-based; details: MGC-803, 48 h
[2] = tested on: A549; assay: Antiproliferative activity against human A549 cells after 48 hrs by MTT assay; format: functional, cell-based; details: A549, 48 h
[3] = tested on: NCI-H1650; assay: Antiproliferative activity against human NCI-H1650 cells after 48 hrs by MTT assay; format: functional, cell-based; details: NCI-H1650, 48 h
[4] = tested on: ECa-109 cell line; assay: Antiproliferative activity against human EC109 cells after 48 hrs by MTT assay; format: functional, cell-based; details: ECa-109, 48 h
[5] = tested on: GES1; assay: Antiproliferative activity against human GES-1 cells after 48 hrs by MTT assay; format: cell-based; details: GES1, 48 h
[6] = tested on: MKN-45; assay: Antiproliferative activity against human MKN45 cells after 48 hrs by MTT assay; format: functional, cell-based; details: MKN-45, 48 h
[7] = tested on: NCI-H1650; assay: Cell cycle arrest in human NCI-H1650 cells assessed as accumulation at S phase at 2 uM after 24 hrs by propidium iodide staining-based flow cytometry (reference value: 36.2%); format: functional
[8] = tested on: NCI-H1650; assay: Anticlonogenic activity against human NCI-H1650 cells assessed as inhibition of colony formation after 9 days by crystal violet staining-based assay; format: functional, cell-based
[9] = tested on: NCI-H1650; assay: Induction of apoptosis in human NCI-H1650 cells assessed as increase in early apoptotic cells after 24 hrs by Annexin-V-FITC/propidium iodide staining based flow cytometry; format: functional, cell-based
[10] = tested on: NCI-H1650; assay: Cell cycle arrest in human NCI-H1650 cells assessed as accumulation at G2/M phase at 2 uM after 24 hrs by propidium iodide staining-based flow cytometry (reference value: 12.4%); format: functional
[11] = tested on: NCI-H1650; assay: Induction of apoptosis in human NCI-H1650 cells assessed as increase in cleaved caspase-3 level up to 8 uM after 24 hrs by Western blot analysis; format: functional, cell-based
[12] = tested on: NCI-H1650; assay: Cell cycle arrest in human NCI-H1650 cells assessed as accumulation at S phase at 4 uM after 24 hrs by propidium iodide staining-based flow cytometry (reference value: 36.2%); format: functional
[13] = tested on: NCI-H1650; assay: Induction of apoptosis in human NCI-H1650 cells assessed as viable cells at 2 uM after 24 hrs by Annexin-V-FITC/propidium iodide staining based flow cytometry (reference value: 83.6%); format: functional; details: NCI-H1650, 24 h, read-out: Activity
[14] = tested on: NCI-H1650; assay: Cell cycle arrest in human NCI-H1650 cells assessed as accumulation at S phase at 8 uM after 24 hrs by propidium iodide staining-based flow cytometry (reference value: 36.2%); format: functional
[15] = Selectivity index, ratio of IC50 for human GES-1 cells to IC50 for human NCI-H1650 cells; format: toxicity; details: GES-1 cells versus NCI-H1650 cells, read-out: Ratio IC50
[16] = tested on: NCI-H1650; assay: Cell cycle arrest in human NCI-H1650 cells assessed as accumulation at G2/M phase at 4 uM after 24 hrs by propidium iodide staining-based flow cytometry (reference value: 12.4%); format: functional
[17] = tested on: NCI-H1650; assay: Cell cycle arrest in human NCI-H1650 cells assessed as accumulation at G1 phase at 8 uM after 24 hrs by propidium iodide staining-based flow cytometry (reference value: 55.7%); format: functional
[18] = tested on: NCI-H1650; assay: Induction of apoptosis in human NCI-H1650 cells assessed as early apoptotic cells at 2 uM after 24 hrs by Annexin-V-FITC/propidium iodide staining based flow cytometry (reference value: 5.58%); format: functional
[19] = tested on: NCI-H1650; assay: Induction of apoptosis in human NCI-H1650 cells assessed as increase in Bax expression measured after 24 hrs by Western blot analysis; format: functional, cell-based
[20] = tested on: NCI-H1650; assay: Induction of apoptosis in human NCI-H1650 cells assessed as late apoptotic cells at 4 uM after 24 hrs by Annexin-V-FITC/propidium iodide staining based flow cytometry (reference value: 7.64%); format: functional
[21] = tested on: NCI-H1650; assay: Induction of apoptosis in human NCI-H1650 cells assessed as increase in cleaved caspase-9 level up to 8 uM after 24 hrs by Western blot analysis; format: functional, cell-based
[22] = tested on: NCI-H1650; assay: Induction of apoptosis in human NCI-H1650 cells assessed as early apoptotic cells at 4 uM after 24 hrs by Annexin-V-FITC/propidium iodide staining based flow cytometry (reference value: 5.58%); format: functional
[23] = tested on: NCI-H1650; assay: Induction of apoptosis in human NCI-H1650 cells assessed as reduction in Bcl-2 expression up to 8 uM after 24 hrs by Western blot analysis; format: functional, cell-based
[24] = tested on: NCI-H1650; assay: Induction of apoptosis in human NCI-H1650 cells assessed as viable cells at 4 uM after 24 hrs by Annexin-V-FITC/propidium iodide staining based flow cytometry (reference value: 83.6%); format: functional; details: NCI-H1650, 24 h, read-out: Activity
[25] = tested on: NCI-H1650; assay: Cell cycle arrest in human NCI-H1650 cells assessed as accumulation at G1 phase at 4 uM after 24 hrs by propidium iodide staining-based flow cytometry (reference value: 55.7%); format: functional
[26] = tested on: NCI-H1650; assay: Anticlonogenic activity against human NCI-H1650 cells assessed as inhibition of colony formation at 10 uM after 9 days by crystal violet staining-based assay relative to control; format: functional; details: NCI-H1650, 216 h
[27] = tested on: NCI-H1650; assay: Induction of apoptosis in human NCI-H1650 cells assessed as late apoptotic cells at 2 uM after 24 hrs by Annexin-V-FITC/propidium iodide staining based flow cytometry (reference value: 7.64%); format: functional
[28] = tested on: NCI-H1650; assay: Cell cycle arrest in human NCI-H1650 cells assessed as accumulation at G1 phase at 2 uM after 24 hrs by propidium iodide staining-based flow cytometry (reference value: 55.7%); format: functional
[29] = tested on: NCI-H1650; assay: Induction of apoptosis in human NCI-H1650 cells assessed as necrotic cells at 4 uM after 24 hrs by Annexin-V-FITC/propidium iodide staining based flow cytometry (reference value: 3.22%); format: functional
[30] = tested on: NCI-H1650; assay: Induction of apoptosis in human NCI-H1650 cells assessed as necrotic cells at 2 uM after 24 hrs by Annexin-V-FITC/propidium iodide staining based flow cytometry (reference value: 3.22%); format: functional
[31] = tested on: NCI-H1650; assay: Cell cycle arrest in human NCI-H1650 cells assessed as accumulation at G2/M phase at 8 uM after 24 hrs by propidium iodide staining-based flow cytometry (reference value: 12.4%); format: functional
[32] = tested on: NCI-H1650; assay: Cell cycle arrest in human NCI-H1650 cells assessed as accumulation at G2/M phase after 24 hrs by propidium iodide staining-based flow cytometry; format: functional

CCCCc1ccc(NC(=S)NCCNc2nc(SCCC)nc3c2nnn3CCc2ccccc2)cc1
IC50 [1]: 31.2 µM | IC50 [2]: > 64 µM | IC50 [3]: 40.9 µM | IC50 [4]: 18.9 µM | IC50 [5]: > 64 µM | IC50 [6]: > 64 µM

CCCSc1nc(NCCNC(=S)Nc2cccnc2)c2nnn(CCc3ccccc3)c2n1
IC50 [1]: 16.4 µM | IC50 [2]: 8.23 µM | IC50 [3]: 2.38 µM | IC50 [4]: 4.99 µM | IC50 [5]: 30.3 µM | IC50 [6]: 6.58 µM

CCCSc1nc(NCCNC(=S)Nc2cccc(Cl)c2)c2nnn(CCc3ccccc3)c2n1
IC50 [1]: 27 µM | IC50 [2]: 15.8 µM | IC50 [3]: 17 µM | IC50 [4]: 11.8 µM | IC50 [5]: 60.4 µM | IC50 [6]: 30.1 µM

CCCSc1nc(NCCNC(=S)NCc2ccccc2)c2nnn(CCc3ccccc3)c2n1
IC50 [1]: 17.4 µM | IC50 [2]: > 64 µM | IC50 [3]: > 64 µM | IC50 [4]: 13.8 µM | IC50 [5]: 51.3 µM | IC50 [6]: 22.9 µM

CCCSc1nc(NCCNC(=S)Nc2ccc(C)cc2)c2nnn(CCc3ccccc3)c2n1
IC50 [1]: 35.2 µM | IC50 [2]: 42.4 µM | IC50 [3]: 58.8 µM | IC50 [4]: 28.4 µM | IC50 [5]: 43 µM | IC50 [6]: 50.6 µM

CCCSc1nc(NCCNC(=S)Nc2cccc3ccccc23)c2nnn(CCc3ccccc3)c2n1
IC50 [1]: > 64 µM | IC50 [2]: 40.9 µM | IC50 [3]: 6.51 µM | IC50 [4]: > 64 µM | IC50 [5]: > 64 µM | IC50 [6]: 9.73 µM

O=c1[nH]cc(F)c(=O)[nH]1 [FLUOROURACIL]
IC50 [5]: 9.02 µM

CCCSc1nc(NCCNC(=S)Nc2cccnc2)c2nnn(CC(C)C)c2n1
IC50 [1]: 25.2 µM | IC50 [2]: 10.6 µM | IC50 [3]: 15.3 µM | IC50 [4]: > 64 µM | IC50 [5]: 48.2 µM | IC50 [6]: 19.2 µM

CCCSc1nc(NCCNC(=S)Nc2cccnc2)c2nnn(C3CCCC3)c2n1
IC50 [1]: 19.2 µM | IC50 [2]: 15.1 µM | IC50 [3]: 8.99 µM | IC50 [4]: 12.6 µM | IC50 [5]: 32.9 µM | IC50 [6]: 13.5 µM

CCCSc1nc(NCCNC(=S)Nc2cccc(C(F)(F)F)c2)c2nnn(CCc3ccccc3)c2n1
IC50 [1]: 33.9 µM | IC50 [2]: 17.2 µM | IC50 [3]: 24.2 µM | IC50 [4]: 17.8 µM | IC50 [5]: 23.2 µM | IC50 [6]: 35.6 µM

CCCSc1nc(NCCNC(=S)Nc2ccc(Br)cc2)c2nnn(CCc3ccccc3)c2n1
IC50 [1]: 38.1 µM | IC50 [2]: 32.5 µM | IC50 [3]: 51.1 µM | IC50 [4]: 23.1 µM | IC50 [5]: > 64 µM | IC50 [6]: 40 µM

CCCSc1nc(NCCNC(=S)Nc2ccccn2)c2nnn(CCc3ccccc3)c2n1
IC50 [1]: 11.6 µM | IC50 [2]: 5.91 µM | IC50 [3]: 7.62 µM | IC50 [4]: 5.41 µM | IC50 [5]: 23.1 µM | IC50 [6]: 8.09 µM

CCCSc1nc(NCCNC(=S)Nc2ccc([N+](=O)[O-])cc2)c2nnn(CCc3ccccc3)c2n1
IC50 [1]: > 64 µM | IC50 [2]: 39.1 µM | IC50 [3]: 26.1 µM | IC50 [4]: 58.1 µM | IC50 [5]: 35.2 µM | IC50 [6]: 48.2 µM

CCCSc1nc(NCCNC(=S)Nc2ccccc2Cl)c2nnn(CCc3ccccc3)c2n1
IC50 [1]: > 64 µM | IC50 [2]: > 64 µM | IC50 [3]: 18.2 µM | IC50 [4]: > 64 µM | IC50 [5]: > 64 µM | IC50 [6]: > 64 µM

CCCSc1nc(NCCNC(=S)Nc2cccnc2)c2nnn(CCO)c2n1
IC50 [1]: > 64 µM | IC50 [2]: > 64 µM | IC50 [3]: 45.9 µM | IC50 [4]: 18.2 µM | IC50 [5]: > 64 µM | IC50 [6]: 25 µM

CCCSc1nc(NCCNC(=S)Nc2ccc(Cl)cc2)c2nnn(CCc3ccccc3)c2n1
IC50 [1]: 27.2 µM | IC50 [2]: 23.2 µM | IC50 [3]: 13.2 µM | IC50 [4]: 10.6 µM | IC50 [5]: 41.2 µM | IC50 [6]: 37.6 µM

CCCSc1nc(NCCNC(=S)Nc2cccnc2)c2nnn(Cc3ccccc3)c2n1
IC50 [1]: 24 µM | IC50 [2]: 12 µM | IC50 [3]: 9.56 µM | IC50 [4]: 10.8 µM | IC50 [5]: 21.9 µM | IC50 [6]: 15.1 µM

CCCSc1nc(NCCNC(=S)Nc2ccccc2)c2nnn(CCc3ccccc3)c2n1
IC50 [1]: > 64 µM | IC50 [2]: > 64 µM | IC50 [3]: 49.5 µM | IC50 [4]: 37.2 µM | IC50 [5]: 53.1 µM | IC50 [6]: > 64 µM

CCCSc1nc(NCCNC(=S)Nc2cccnc2)c2nnn(CCc3c[nH]c4ccccc34)c2n1
IC50 [1]: 9.21 µM | Activity [7]: 35.1% | inhibition [8]: Dose-dependent effect | Activity [9]: Dose-dependent effect | Activity [10]: 23.2% | Activity [11]: Active | Activity [12]: 21.9% | viability at 2 µM [13]: 51.1% | Activity [14]: 38.4% | selectivity ratio [15]: 14.4 | IC50 [2]: 3.28 µM | Activity [16]: 34.7% | Activity [17]: 20.8% | Activity [18]: 35.5% | Activity [19]: Dose-dependent effect | Activity [20]: 15.1% | Activity [21]: Active | Activity [22]: 36.7% | Activity [23]: Active | IC50 [3]: 1.91 µM | viability at 4 µM [24]: 46.8% | Activity [25]: 27.2% | IC50 [4]: 8.12 µM | IC50 [5]: 27.4 µM | inhibition at 10 µM [26]: ≤ 68% | Activity [27]: 12.3% | IC50 [6]: 3.22 µM | Activity [28]: 30.6% | Activity [29]: 1.38% | Activity [30]: 1.14% | Activity [31]: 45.6% | Activity [32]: Dose-dependent effect
